Test results published in patent publication US6605601B2, “A1 adenosine receptor antagonists” (Biogen, Inc., priority 2000, dated 2003).
pKi: −log10 of the molar value.

Target: T1, rat A1 adenosine receptor (Rattus norvegicus, UniProt P25099)
T1 construct: Membranes were prepared from rat cerebral cortex isolated from freshly euthanized rats; from tissue; host or cells: rat cerebral cortex
T1 sequence (P25099 1-326): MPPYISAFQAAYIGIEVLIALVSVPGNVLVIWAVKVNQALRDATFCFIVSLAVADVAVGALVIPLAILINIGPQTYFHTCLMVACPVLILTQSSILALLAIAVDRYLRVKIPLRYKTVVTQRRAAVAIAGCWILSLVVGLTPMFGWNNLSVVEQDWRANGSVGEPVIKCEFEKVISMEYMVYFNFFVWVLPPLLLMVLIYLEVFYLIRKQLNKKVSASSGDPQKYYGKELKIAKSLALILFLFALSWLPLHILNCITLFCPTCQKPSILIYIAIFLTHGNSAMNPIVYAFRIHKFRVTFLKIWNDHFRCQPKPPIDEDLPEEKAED
Assay: Radioligand ([3H]DPCPX) competition binding assay on rat A1 adenosine receptor (rat cerebral cortex membranes)
Details: for % specific radioligand binding remaining at 1 µM: 2.5 h, % of total specific radioligand binding remaining at 1 μM of competing compound; for pKi: [3H]DPCPX 1 nM, Cheng-Prusoff from IC50
Method: For some of these compounds, the Ki values for rat and human adenosine A1 receptors were determined according to the following binding assay protocol.
Rat A1 Receptor: Membranes were prepared from rat cerebral cortex isolated from freshly euthanized rats. Tissues were homogenized in buffer A (10 mM EDTA, 10 mM Na-HEPES, pH 7.4) supplemented with protease inhibitors (10 μg/ml benzamidine, 100 μM PMSF, and 2 μg/ml each of aprotinin, pepstatin and leupeptin), and centrifuged at 20,000×g for 20 min. Pellets were resuspended and washed twice with buffer HE (10 mM Na-HEPES, 1 mM EDTA, pH 7.4, plus protease inhibitors). Final pellets were resuspended in buffer HE, supplemented with 10% (w/v) sucrose and protease inhibitors, and frozen in aliquots at −80° C. Protein concentrations were measured using BCA protein assay kit (Pierce).
Membranes (50 μg membrane protein for rat A1ARs, and 25 μg of CHO-K1 membrane protein for human A1ARs), radioligands and varying concentrations of competing ligands were incubated in triplicates in 0.1 ml buffer HE plus 2 units/ml adenosine deaminase for 2.5 h at 21° C. Radioligand [^3H]DPCPX (112 Ci/mmol from NEN, final concentration: 1 nM) was used for competition binding assays on A1ARs. Nonspecific binding was measured in the presence of 10 μM BG9719. Binding assays were terminated by filtration over Whatman GF/C glass fiber filters using a BRANDEL cell harvester. Filters were rinsed three times with 3-4 ml ice-cold 10 mM Tris-HCl, pH 7.4 and 5 mM MgCl2 at 4° C. Filter paper was transferred to a vial, and 3 ml of scintillation cocktail ScintiVerseII (Fisher)was added. Radioactivity was counted in a Wallac β-counter.
For K1 Determinations: Competition binding data were fit to a single-site binding model and plotted using Prizm GraphPad.
For % Binding: For one-point binding assays, data were presented as % of total specific binding at 1 μM of competing compound: % of total =100* (Specific binding with 1 μM of competing compound/total specific binding). % binding represents the amount of bound radioligand remaining in the presence of 1 μM of competing antagonist.

Structure (SMILES)	% specific radioligand binding remaining at 1 µM	pKi
CCCC[C@@H]1CN2C(=O)N(CCC)c3nc(C45CCC(O)(CC4)CC5)[nH]c3C2=N1 [Compound 19]	18.1%	–
CCCN1C(=O)N2C(=NC[C@@H]2C)c2[nH]c(C34CCC(O)(CC3)CC4)nc21 [Compound 12]	8.6%	7.29
CCCN1C(=O)N2C[C@@H](Cc3ccc(O)cc3)N=C2c2[nH]c(C34CCC(O)(CC3)CC4)nc21 [Compound 28]	36.3%	–
CCCN1C(=O)N2C[C@@H](C(C)(C)C)N=C2c2[nH]c(C34CCC(O)(CC3)CC4)nc21 [Compound 16]	–	6.81
CCCN1C(=O)N2C[C@@H](c3ccccc3)N=C2c2[nH]c(C34CCC(O)(CC3)CC4)nc21 [Compound 13]	–	7.17
CCCN1C(=O)N2C[C@@H](C)N=C2c2[nH]c(C34CCC(O)(CC3)CC4)nc21 [Compound 4, 2-(4-Hydroxy-bicyclo[2.2.2]oct-1-yl)-7-methyl-4-propyl-1,4,6,7-tetrahydro-1,3,4,5a,8-pentaaza-as-indacen-5-one]	–	8.00
CCCN1C(=O)N2CCCN=C2c2[nH]c(C34CCC(C(=O)O)(CC3)CC4)nc21 [Compound 29]	81.8%	–
CCCN1C(=O)N2C[C@@H](C(C)CC)N=C2c2[nH]c(C34CCC(O)(CC3)CC4)nc21 (stereo partly shown) [Compound 8]	1%	7.85
CCCN1C(=O)N2CCCN=C2c2[nH]c(C34CCC(O)(CC3)CC4)nc21 [Compound 20]	52.7%	–
CCCN1C(=O)N2C[C@@H](CC)N=C2c2[nH]c(C34CCC(CC3)CC4)nc21 [Compound 9]	0.1%	7.57
CCCN1C(=O)N2CC[C@@H](C)N=C2c2[nH]c(C34CCC(O)(CC3)CC4)nc21 [Compound 31]	40%	–
CCCN1C(=O)N2C[C@@H](CC)N=C2c2[nH]c(C34CCC(CCC(=O)O)(CC3)CC4)nc21 [Compound 3, 3-[4-(7-Ethyl-5-oxo-4-propyl-4,5,6,7-tetrahydro-1H-1,3,4,5a,8-pentaaza-as-indacen-2-yl)-bicyclo[2.2.2]oct-1-yl]-propionic acid]	–	8.08
CCCN1C(=O)N2C[C@@H](CC)N=C2c2[nH]c(C34CCC(O)(CC3)CC4)nc21 [Compound 2, 7-Ethyl-2-(4-hydroxy-bicyclo[2.2.2]oct-1-yl)-4-propyl-1,4,6,7-tetrahydro-1,3,4,5a,8-pentaaza-as-indacen-5-one]	–	8.24
CCCN1C(=O)N2C[C@H](CC)N=C2c2[nH]c(C34CCC(C(=O)O)(CC3)CC4)nc21 [Compound 26]	41.1%	–
CCCN1C(=O)N2C[C@H](CC)N=C2c2[nH]c(C34CCC(O)(CC3)CC4)nc21 [Compound 24]	11%	–
CCCN1C(=O)N2C[C@@H](CC)N=C2c2[nH]c(C34CCC(C(=O)O)(CC3)CC4)nc21 [Compound 10]	6.2%	7.40

Structure (SMILES)	% specific radioligand binding remaining at 1 µM	pKi
CCCN1C(=O)N2CCCCN=C2c2[nH]c(C34CCC(C(=O)O)(CC3)CC4)nc21 [Compound 30]	71%	–
CCCN1C(=O)N2C[C@@H](C(C)C)N=C2c2[nH]c(C34CCC(C(=O)O)(CC3)CC4)nc21 [Compound 25]	46.7%	–
CCC[C@@H]1CN2C(=O)N(CCC)c3nc(C45CCC(O)(CC4)CC5)[nH]c3C2=N1 [Compound 11]	3.7%	7.36
CCCN1C(=O)N2CCN=C2c2[nH]c(C34CCC(C(=O)O)(CC3)CC4)nc21 [Compound 6, 4-(5-Oxo-4-propyl-4,5,6,7-tetrahydro-1H-1,3,4,5a,8-pentaaza-as-indacen-2-yl)-bicyclo[2.2.2]octane-l-carboxylic acid]	2.6%	–
CCCN1C(=O)N2CCCCN=C2c2[nH]c(C34CCC(O)(CC3)CC4)nc21 [Compound 27]	16.3%	–
CCCN1C(=O)N2C[C@H](C(C)CC)N=C2c2[nH]c(C34CCC(O)(CC3)CC4)nc21 (stereo partly shown) [Compound 15]	7.7%	7.03
CCCN1C(=O)N2C[C@@H](C(C)C)N=C2c2[nH]c(C34CCC(O)(CC3)CC4)nc21 [Compound 1, 2-(4-Hydroxy-bicyclo[2.2.2]oct-1-yl)-7-isopropyl-4-propyl-1,4,6,7-tetrahydro-1,3,4,5a,8-pentaaza-as-indacen-5-one]	–	8.36
CCCN1C(=O)N2CCN=C2c2[nH]c(C34CCC(O)(CC3)CC4)nc21 [Compound 21]	12.2%	–
CCCN1C(=O)N2C(=NC[C@H]2C)c2[nH]c(C34CCC(O)(CC3)CC4)nc21 [Compound 14]	7.8%	7.16
CCCN1C(=O)N2C[C@@H](CC(C)C)N=C2c2[nH]c(C34CCC(O)(CC3)CC4)nc21 [Compound 17]	–	6.78
CCCN1C(=O)N2C[C@@H](Cc3ccccc3)N=C2c2[nH]c(C34CCC(O)(CC3)CC4)nc21 [Compound 18]	–	6.15
CCCN1C(=O)N2C[C@@H](C(C)C)N=C2c2[nH]c(C34CCC(CCC(=O)O)(CC3)CC4)nc21 [Compound 5, 3-[4-(7-Isopropyl-5-oxo-4-propyl-4,5,6,7-tetrahydro-1H-1,3,4,5a,8-pentaaza-as-indacen-2-yl)-bicyclo[2.2.2]oct-1-yl]-propionic acid]	1.9%	7.98
CCCN1C(=O)N2C[C@@H](C)N=C2c2[nH]c(C34CCC(CCC(=O)O)(CC3)CC4)nc21 [Compound 7]	2.5%	7.86
CCC[C@@H]1CN2C(=O)N(CCC)c3nc(C45CCC(C(=O)O)(CC4)CC5)[nH]c3C2=N1 [Compound 23]	22.8%	–
CCCN1C(=O)N2C[C@@H](C)N=C2c2[nH]c(C34CCC(C(=O)O)(CC3)CC4)nc21 [Compound 22]	24%	–
